Reference: article PMC5789847, “Bismuth antimicrobial drugs serve as broad-spectrum metallo-β-lactamase inhibitors” (Nature Communications, 2018)
Where “and” joins values, the source holds several entries; their conditions need not be identical. Identical values can stand only once.

What was measured:
NDM-1 [1] = molecular target: T1, NDM-1 (Klebsiella pneumoniae, UniProt C7C422); type: biochemical; settings: Bi(III) 1.5 µM (as Bi(NIT)3); 0.900 at 0 µM
Target sequence in this assay (C7C422 29-270, looked up, species assumed): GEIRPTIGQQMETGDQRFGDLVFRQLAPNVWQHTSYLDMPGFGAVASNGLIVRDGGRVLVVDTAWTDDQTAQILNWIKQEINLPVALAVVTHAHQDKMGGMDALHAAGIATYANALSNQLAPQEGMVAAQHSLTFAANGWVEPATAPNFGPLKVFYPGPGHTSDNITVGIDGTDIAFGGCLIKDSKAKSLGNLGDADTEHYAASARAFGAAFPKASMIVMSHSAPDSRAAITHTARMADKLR
Description: NDM-1 (50 nM) was incubated with Bi(NIT)3 (0.5, 1.0, and 1.5 µM) for 1 h at 25 °C with gentle shaking. The assay was performed in a 96-well microplate reader at 298 K. The final assay buffer contains 50 mM HEPES at pH 7.0, 100 mM NaCl, with MER as the substrate ranging from 10 to 150 µM. Control experiment was also performed in the absence of inhibitors under the same conditions. The Km and Vmax for both the uninhibited and inhibited reactions were obtained by fitting the data into the double reciprocal Lineweaver–Burk plots.

NDM-1 [2] = molecular target: T1, NDM-1; test: Zinc supplementation assay; type: biochemical; settings: supplementation of 2 molar equivalents of Zn(II); Bi-NDM-1 prepared with CBS
Description: To investigate whether bismuth inhibits the enzyme reversibly, enzyme activities of Bi-NDM-1 and apo-NDM-1 were compared upon the supplementation of Zn(II). Bi-bound NDM-1 (50 nM) was prepared by pre-incubation of apo-bound NDM-1 with CBS for 2 h at 25 °C, followed by removal of unbound Bi(III) and the bound Bi was verified by ICP-MS. The above protein solutions were mixed with ZnSO4 at concentration up to 2 molar equivalents to NDM-1 and 100 µM MER. The change in absorbance at 300 nm was monitored on a Varian Cary 50 UV-visible spectrophotometer at 25 °C for calculation of reaction rates. Reaction rate of apo-NDM-1 with addition of 2 molar equivalents of ZnSO4 was normalized to 1. The metal content of Bi-bound NDM-1 treated with Zn(II) was measured and analyzed by ICP-MS as described in the previous section.
Target sequence in this assay (C7C422 29-270, looked up, species assumed): as above

NDM-1-C208A = NDM-1-C208A (Klebsiella pneumoniae, UniProt C7C422, C208A); test: Bi(III) binding capacity by ICP-MS
Description: To monitor the displacement of Zn(II) by Bi(III), ICP-MS was employed to accurately quantify ^209Bi and ^66Zn contents in various purified NDM-1 samples. Purified Zn-bound-NDM-1 (20 μM) dissolved in trace-metal-free ICP-MS buffer containing 50 mM HEPES, pH 7.0, was incubated with various concentrations of CBS at 25 °C for 5 h with mild shaking. The samples were subsequently dialyzed in ICP-MS buffer to remove unbound-metal ions and were then acidified and subsequently analyzed using an ICP-MS spectrometer (Agilent 7500a, Agilent Technologies, CA, USA) with ^115In as an internal standard for ^209Bi, ^66Zn, and ^34S contents, which are used to quantify protein concentration.

[3] = system: NDM-C. freundii (NDM-1^+); test: Microdilution MIC/MBC and checkerboard assay; type: cell-based, Citrobacter freundii
Description: (§1) MIC values were determined by standard broth micro-dilution method (Clinical and Laboratory Standards Institute (CLSI) M100-S20, 2010)[64]. Briefly, bacterial cells were cultured in LB broth overnight at 37 °C at 250 rpm and the OD was measured at 600 nm (OD600). The bacterial density was adjusted to about 1 × 10^6 CFU mL^−1 and checked by CFU counting on agar plates afterwards. Tested antibiotics or Bi(III) compounds were added triplicately into individual wells of flat-bottomed 96-well plates and performed 2-fold serial dilution, followed by addition of prepared bacterial inocula. The plate was then incubated at 37 °C for overnight. […] The MIC was determined as the lowest concentration of a drug that could inhibit the growth of microorganism by both visual reading and OD reading at 600 nm using a microtiter plate reader.
(§2) Resulting growth (or lack of growth) was examined after overnight culturing and the lowest concentration that inhibits 99.9% of the original culture was taken as MBC.
(§3) Other procedures were kept strictly the same. […] Synergism was defined when FICI ≤ 0.5, indifference was defined when FICI > 0.5 and < 4, and antagonism was defined when FICI≥4[65]. […] All of the determinations were performed at least in triplicate on different days.

NDM-HK [4] = test: Time kill assay; type: cell-based, E. coli; settings: MER 24 µg mL^−1 + Bi(NAC)3 32 µg mL^−1
Description: Time kill assay was used to further explore the synergy between MER and Bi(III) compounds. In a typical assay, NDM-HK was cultured overnight and diluted 1:250 into LB broth at 37 °C for 3 h to reach log phase. The initial bacterial density was adjusted to ~10^7 CFU mL^−1 and then exposed to MER, Bi(III) compounds either alone or in combination. LB broth with no drugs served as a control. Aliquots of bacterial suspension were withdrawn at different time intervals (0, 1, 2, 4, 6, 8, and 24 h) for inspection of bacterial viability by agar plating. The concentrations of the drugs used in the test are 24 µg mL^−1 for MER, 64 µg mL^−1 for CBS, and 32 µg mL^−1 for Bi(NAC)3. Data from three independent experiments were averaged and plotted as log10 CFU mL^−1 vs. time (h) for each time point over 24 h. All assays were triplicated and performed three times on different days.

NDM-1 [5] = molecular target: T1, NDM-1; type: cell-based; design: endogenous in cells; host or cells: E. coli clinical isolate NDM-HK; settings: NDM-HK cultured with 100 µM compound; control 50.1 °C
Description: The cellular thermal shift assay was performed according to a standard method. Clinical isolate of NDM-1-positive E. coli (NDM-HK) was cultured overnight in the absence or presence of 100 µM Bi(III) compounds, i.e., CBS, Bi(NAC)3, Bi(NIT)3. The bacterial pellets were harvested and washed with PBS for 4 times. The cell suspensions were aliquoted into PCR tubes and heat treatment was performed at the designated temperature ranging from 40 °C to 70 °C for 3 min in a 96-well thermal cycler. The tubes were cooled immediately at room temperature for another 3 min after heating and the heating procedures were repeated for three cycles. For the cell lysis, the samples were frozen–thawed for two cycles in liquid nitrogen and thermal cycler set at 25 °C. The samples were vortexed gently after each cycle and were centrifuged at 20,000 × g to obtain the supernatant when the second cycle was finished. All the samples were subjected to western blot analysis for detection and quantification of NDM-1 content as described above.
Target sequence in this assay (C7C422 29-270 limits assumed): as the sequence (C7C422 29-270, looked up, species assumed) above

VIM-BL21 (VIM-2^+) = test: microbe, parasite or virus in culture; type: cell-based, E. coli
Description: as §1, §2, §3

IMP-BL21 (IMP-4^+) = test: microbe, parasite or virus in culture; type: cell-based, E. coli
Description: as §1, §2, §3

NDM-HK (NDM-1^+) = test: microbe, parasite or virus in culture; type: cell-based, E. coli
Description: as §1, §2, §3

NDM-HK [6] = test: Resistance study: MPC and mutation frequency; type: cell-based, E. coli; settings: ≥64 µg mL^−1 Bi(NAC)3
[7] = system: MBL-positive bacterial strains; settings: with MER, different MBL-positive strains
Description: as §1, §2, §3

IMP-4 = test: IC50 enzyme inhibition assay; type: biochemical; settings: IMP-4 50 nM, 1 h preincubation, MER substrate
Description: (§4) Freshly prepared 50 nM of Zn2-NDM-1, Zn2-VIM-2, or Zn2-IMP-4 in 50 mM HEPES/Na pH 7.0, 100 mM NaCl were first incubated with various concentrations of CBS for 1 h at 25 °C, then mixed with equal volume of 0.2 mM MER. The assay was performed in a 1 cm quartz cuvette using the kinetic mode on a Varian Cary50 UV-visible spectrophotometer at 25 °C. The decrease in absorbance at 300 nm due to ring-opening of MER was monitored every second for a duration of 10 min until the reaction was completed. The initial rates were extracted and calculated from each reaction curves for fitting IC50 curves.

NDM-1 [8] = molecular target: T1, NDM-1; type: biochemical; settings: NDM-1 50 nM, 1 h preincubation, MER substrate
Description: as §4
Target sequence in this assay (C7C422 29-270, looked up, species assumed): as above

VIM-2 = VIM-2 (Escherichia coli, UniProt Q5U7L7); type: biochemical; settings: VIM-2 50 nM, 1 h preincubation, MER substrate
Description: as §4

[9] = system: NDM-K. pneumonia (NDM-1^+); test: Microdilution MIC/MBC and checkerboard assay; type: cell-based, Klebsiella pneumonia
Description: as §1, §2, §3

Sequence of NDM-1-C208A (C7C422 29-270 C208A): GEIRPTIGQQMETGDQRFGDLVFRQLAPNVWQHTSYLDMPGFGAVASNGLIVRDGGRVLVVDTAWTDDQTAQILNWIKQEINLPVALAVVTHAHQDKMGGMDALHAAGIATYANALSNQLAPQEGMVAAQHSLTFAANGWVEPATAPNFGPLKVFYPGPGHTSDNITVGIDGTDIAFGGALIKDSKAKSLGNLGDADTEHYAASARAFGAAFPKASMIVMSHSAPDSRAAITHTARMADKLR

## [Bi+3] [Bi(III)]
NDM-1 [1]
  apparent Vmax: 0.365 µM/s
NDM-1 [2]
  activity restored for Bi-bound NDM-1: about 20%
NDM-1-C208A
  Bi(III) bound to the mutant: ca. 0.25 molar equivalents

## CC(=O)N[C@@H](C[S][Bi]([S]C[C@H](NC(C)=O)C(=O)O)[S]C[C@H](NC(C)=O)C(=O)O)C(=O)O [Bi(NAC)3]
[3]; NDM-C. freundii (NDM-CF)
  MBC of MER in combination with compound at 32 µg mL^-1: 0.5 µg mL^-1 and 0.5/0.5 µg mL^-1
  MIC of MER in combination with compound at 32 µg mL^-1: 0.5 µg mL^-1 and 0.5/0.5 µg mL^-1
[3]; NDM-CF
  MBC of Bi(III) compound alone: > 256 µg/mL
  MIC of Bi(III) compound alone: 256 µg/mL
[3]; NDM-CF, MER + compound, 256 µg mL^-1 set as MIC of Bi(III)
  FICI: 0.188
NDM-HK [4]
  time to eradicate the bacterium completely: ≤ 6 h
NDM-1 [5]
  NDM-1 melting temperature, treated group: 47.7 °C
VIM-BL21 (VIM-2^+); VIM-2-positive E. coli
  decrease in the MIC of MER: 64 fold
VIM-BL21 (VIM-2^+); VIM-BL21
  MBC of MER in combination with compound at 32 µg mL^-1: 1 µg/mL
  MIC of MER in combination with compound at 32 µg mL^-1: 0.5 µg/mL
VIM-BL21 (VIM-2^+); VIM-BL21, MER + compound, 256 µg mL^-1 set as MIC of Bi(III)
  FICI: 0.063
IMP-BL21 (IMP-4^+); IMP-4-positive E. coli
  decrease in the MIC of MER: 16 fold
IMP-BL21 (IMP-4^+); IMP-BL21
  MBC of MER in combination with compound at 32 µg mL^-1: 2 µg mL^-1 and 2/2 µg mL^-1
  MIC of MER in combination with compound at 32 µg mL^-1: 2 µg mL^-1 and 2/2 µg mL^-1
IMP-BL21 (IMP-4^+); IMP-BL21, MER + compound, 256 µg mL^-1 set as MIC of Bi(III)
  FICI: 0.125
NDM-HK (NDM-1^+); NDM-1-positive E. coli
  decrease in the MIC of MER: 32 fold
NDM-HK (NDM-1^+); NDM-HK
  MBC of Bi(III) compound/inhibitor alone: > 256 µg/mL
  MBC of MER in combination with compound at 32 µg mL^-1: 0.5 µg/mL
  MIC of Bi(III) compound/inhibitor alone: 128 µg/mL
  MIC of MER in combination with compound at 32 µg mL^-1: 0.5 µg/mL
NDM-HK [6]
  MER MPC with Bi(NAC)3: 2 fold MIC
[7]
  FICI values: 0.063 to 0.188
IMP-4
  IC50: 2800 ± 790 nM
NDM-1 [8]
  IC50: 1650 ± 600 nM
VIM-2
  IC50: 2650 ± 570 nM
[9]; NDM-K. pneumonia (NDM-KP)
  MBC of MER in combination with compound at 32 µg mL^-1: 2 µg/mL
  MIC of MER in combination with compound at 32 µg mL^-1: 1 µg/mL
[9]; NDM-KP
  MBC of Bi(III) compound alone: > 256 µg/mL
  MIC of Bi(III) compound alone: 256 µg/mL
[9]; NDM-KP, MER + compound, 256 µg mL^-1 set as MIC of Bi(III)
  FICI: 0.188
